Assay results from patent US4080466A, “Pharmaceutical compositions containing 4-hydroxyl-1,3-dithiolan-2-ylidene malonates” (Nihon Nohyaku Co., Ltd., priority 1976, dated 1978).

Experiments:
glucose metabolism [1] = test: Effect on glucose metabolism; format: in vivo, mice; settings: 250 mg/kg oral, 6 h before glucose 4.0 g/kg
Protocol: The test compounds dissolved in olive oil and administered orally at the dose of 250 mg/kg to the mice. After 6 hours, 4.0 g/kg of glucose was orally administered. The same amount of glucose was given to the control animals. 0.02 ml of blood was taken from caudal vein of the mice at 30, 60, 90 and 120 min. after glucose administration. Blood sugar was measured by the procedure of Somogyi-Nelson. Number of animals used was 5 to 6 mice for each treatment.

[2] = system: acute liver damage induced by allyl alcohol; test: Protective Effect on Acute Liver Damage associated with Periportal Necrosis (allyl alcohol), BSP test; format: in vivo, mouse (dd-strain); settings: 100 mg/kg oral, 6 h before allyl alcohol (0.075 mg/kg oral); 24 h
Protocol: The compund of this invention or anethol trithion was orally administered to the male mouse (4 week-old, dd-strain) at the dose of 100 mg/kg. Six hours after it, allyl alcohol was orally administered at the dose of 0.075 mg/kg. Twenty four hours after it, the animals were sacrificed to collect blood samples.

[3] = system: alcohol metabolic function of liver; test: Effect on Concentration of Ethyl alcohol in the Blood; format: in vivo, mice; settings: 250 mg/kg oral, 6 h before ethyl alcohol 1,000 mg/kg
Protocol: After 6 hours, 1,000 mg/kg of ethyl alcohol was given orally. Blood was taken in a capillary from caudal vein at the time indicated in the results. The plasma was obtained by centrifugation. The concentration of ethyl alcohol in the plasma was measured by FID type gas liquid chromatography. Five mice were used for each group.

[4] = system: acute hepatitis induced by D-galactosamine; test: Protective Effect on Acute Hepatitis associated with Mesenchymal Reaction and Discrete Lobular Necrosis (D-galactosamine); format: in vivo, rat (SD strain); settings: 100 mg/kg oral, 6 h before D-galactosamine 600 mg/kg i.p. (+ 300 mg/kg)
Protocol: D-Galactosamine is a compound which induces a discrete lobular necrosis associated with mesenchymal reaction similar to the change observed in human viral hepatitis, so that it is frequently used in producing a model for viral hepatitis.
The compound of this invention or anethol trithion was administered orally to the male rat (SD strain) at the dose of 100 mg/kg. Six hours after it, D-galactosamine was intraperitoneally administered at the dose of 600 mg/kg. Four hours after it, an additional 300 mg/kg was administered intraperitoneally. Eight hours after it, the animals were sacrificed to collect the blood samples. P-GPT activity and triglyceride in the liver were measured to evaluate the effect of the compound of this invention.

acute oral toxicity = settings: mouse, in vivo, male mice
Source text: Further, these compounds have no detrimental effects on test animals administered therewith, so far as the doses thereof are within an ordinary administration range.

[5] = system: acute liver damage induced by carbon tetrachloride; test: Protective Effect on Acute Liver Damage associated with Centrilobular Necrosis (carbon tetrachloride); format: in vivo, mice (dd-strain); settings: 250 mg/kg oral, average of 5 to 6 mice; for Liver damage index: 6 h before CCl4 (0.05 ml/kg oral), score 0 Normal, 2 slight, 4 clear, 6 heavy damage; for p-GPT (plasma glutamic-pyruvic transaminase activity): 6 h before CCl4, 24 h after CCl4, values over 1,000 regarded as 1,000
Source text: Carbon tetrachloride (CCl4) administration induces centrilobular necrosis of the liver associated with loss of diphosphopyridine nucleotide, hepatic glycogen, coenzyme A and increase in neutral fat. Release of several enzymes from the hepatocytes, and increase of enzyme activities in the plasma are recognized as the result of the damage of the liver. A suitable means for evaluating the degree of damage induced by CCl4 or the degree of protection afforded by drugs is to study the plasma glutamic-pyruvic transminase (p-GPT) activity.
Methods: The test compounds were dissolved or suspended in olive oil and administered orally at the dose of 250 mg/kg to the mice (Four-week-old male mice-dd strain). After 6 hours, CCl4 was administered orally (0.05 ml/kg as olive oil solution). Animals were killed 24 hours after CCl4 administration, and the liver was grossly observed. The plasma was obtained by centrifugation. Activities of p-GPT were determined by the method of Reitman and Frankel and expressed in Karmen units.
Score for liver damage index was as follows:
4 Clearly observable damage
Each figure indicates average of 5 to 6 mice. Values of p-GPT over 1,000 Karmen unit regarded as 1,000 for calculation of average for convenience.

glucose metabolism [6] = test: Effect on glucose metabolism; format: in vivo, mice; settings: 250 mg/kg oral, 6 h before glucose 4.0 g/kg; 0 min

Row | Structure (SMILES) | Blood Sugar (glucose metabolism [1]; 30 min) [mg/dL] | Blood Sugar (glucose metabolism [1]; 60 min) [mg/dL] | Blood Sugar (glucose metabolism [1]; 90 min) [mg/dL] | Blood Sugar (glucose metabolism [1]; 120 min) [mg/dL] | BSP (residual quantity) [2] | Concentration of Ethyl alcohol in Plasma ([3]; 0 min) [ppm] | Concentration of Ethyl alcohol in Plasma ([3]; 5 min) [ppm] | Concentration of Ethyl alcohol in Plasma ([3]; 15 min) [ppm] | Concentration of Ethyl alcohol in Plasma ([3]; 30 min) [ppm] | Concentration of Ethyl alcohol in Plasma ([3]; 60 min) [ppm] | Triglyceride in liver [4] [mg/g] | p-GPT [4] [Karmen unit] | LD50 (acute oral toxicity) [mg/kg] | Liver damage index [5] | p-GPT (plasma glutamic-pyruvic transaminase activity) [5] [Karmen units] | Blood Sugar (glucose metabolism [6]) [mg/dL]
1 | CC(C)OC(=O)C(C(=O)OC(C)C)=C1SCC(O)S1 (centres unmarked) [Compound 2, Diisopropyl 4-hydroxy-1,3-dithiolan-2-ylidene malonate] | 247 ± 20.2 | 212 ± 13.1 | 177 ± 15.5 | 130 ± 10.8 | 17.1 ± 3.8 | 10±7 | 711±95 | 558±104 | 426±96 | 13±6 | 7.0 ± 0.82 | 73 ± 13 | > 6590 | 0.1 | 20 | 136 ± 12.3
2 | CCOC(=O)C(C(=O)OC(C)C)=C1SCC(O)S1 (centres unmarked) [Compound 4, Ethyl isopropyl 4-hydroxy-1,3-dithiolan-2-ylidene malonate] | – | – | – | – | – | 9±4 | 730±92 | 536±113 | 373±105 | 7±2 | – | – | – | 0.1 | 40 | –
